The record followed here is ChEMBL document CHEMBL3045097, “Synthesis and anticonvulsant evaluation of 2-(substituted benzylidene/ethylidene)-N-(substituted phenyl)hydrazinecarboxamide analogues” (Med Chem Res, 2013).

In data set [1] the test system is Mus musculus. Description: Neurotoxicity in i.p. dosed Mus musculus (mouse) assessed as motor impairment measured at 4 hr by rotarod test. It is filed as toxicity, organism-based. The note with it: in vivo, ip. Background: The rotarod test checks motor coordination on a turning rod.
The subject of data set [2] is Mus musculus. Description: Neurotoxicity in Mus musculus (mouse) assessed as motor impairment at 100 mg/kg, ip measured at 2 hr by rotarod test relative to control. More on the design: dose 100 mg/kg, route intraperitoneal. As to conditions: in vivo. The class given is toxicity, organism-based.
Data set [3] has as its system Mus musculus. The data set can be described thus: Anticonvulsant activity in Mus musculus (mouse) assessed as protection against 6 Hz psychomotor-induced clonic seizures at 100 mg/kg, ip measured at 2 hr relative to control. It is filed as functional.
Data set [4] deals with Mus musculus. Description: Neurotoxicity in Mus musculus (mouse) assessed as motor impairment at 100 mg/kg, ip measured at 1 hr by rotarod test relative to control. The class given is toxicity, organism-based. Details: dose 100 mg/kg, route intraperitoneal. The note with it: in vivo.
In data set [5] the test system is Mus musculus. The data set can be described thus: Anticonvulsant activity in i.p. dosed Mus musculus (mouse) assessed as protection against maximal-electric shock-induced seizures measured at 0.5 hr. The class given is functional. As to conditions: ip, read-out: MED.
For data set [6], the system named is Mus musculus. Description: Neurotoxicity in Mus musculus (mouse) assessed as motor impairment at 100 mg/kg, ip measured at 4 hr by rotarod test relative to control. The class given is toxicity, organism-based. More on the design: dose 100 mg/kg, route intraperitoneal. The note with it: in vivo.
The subject of data set [7] is Mus musculus. The data set can be described thus: Anticonvulsant activity in Mus musculus (mouse) assessed as protection against 6 Hz psychomotor-induced clonic seizures at 100 mg/kg, i.p. measured at 0.5 hr relative to control. As to conditions: route intraperitoneal. The class given is functional.
The test system of data set [8] is Mus musculus. The data set can be described thus: Anticonvulsant activity in Mus musculus (mouse) assessed as protection against 6 Hz psychomotor-induced clonic seizures at 100 mg/kg, i.p. measured at 0.25 hr relative to control. The note with it: route intraperitoneal. It is filed as functional.
In data set [9] the test system is Mus musculus. The data set can be described thus: Anticonvulsant activity in Mus musculus (mouse) assessed as protection against maximal-electric shock-induced seizures at 30 to 300 mg/kg, ip measured at 4 hr. It is filed as functional, organism-based.
Data set [10] deals with Mus musculus. Description: Neurotoxicity in Mus musculus (mouse) assessed as motor impairment at 30 to 300 mg/kg, ip measured at 0.5 hr by rotarod test. The class given is toxicity, organism-based. As to conditions: in vivo. Details: dose 30-300 mg/kg, route intraperitoneal.
Data set [11] has as its system Mus musculus. The data set can be described thus: Anticonvulsant activity in Mus musculus (mouse) assessed as protection against scMET-induced clonic seizures at 30 to 300 mg/kg, ip measured at 0.5 to 4 hr. It is filed as functional, organism-based.
For data set [12], the system named is Mus musculus. The data set can be described thus: Anticonvulsant activity in Mus musculus (mouse) assessed as protection against 6 Hz psychomotor-induced clonic seizures at 100 mg/kg, i.p. measured at 1 hr relative to control. It is filed as functional. As to conditions: route intraperitoneal.
Data set [13] relates to Mus musculus. Description: Neurotoxicity in Mus musculus (mouse) assessed as motor impairment at 100 mg/kg, ip measured at 0.25 hr by rotarod test relative to control. The class given is toxicity, organism-based. Details: dose 100 mg/kg, route intraperitoneal. The note with it: in vivo.
The test system of data set [14] is Mus musculus. The data set can be described thus: Anticonvulsant activity in Mus musculus (mouse) assessed as protection against 6 Hz psychomotor-induced clonic seizures at 100 mg/kg, i.p. measured at 4 hr relative to control. The class given is functional.
Data set [15] concerns Mus musculus. The data set can be described thus: Neurotoxicity in Mus musculus (mouse) assessed as motor impairment at 100 mg/kg, ip measured at 0.5 hr by rotarod test relative to control. The note with it: in vivo. It is filed as toxicity, organism-based. Details: dose 100 mg/kg, route intraperitoneal.
Data set [16] concerns Mus musculus. Description: Neurotoxicity in i.p. dosed Mus musculus (mouse) assessed as motor impairment measured at 0.5 hr by rotarod test. The class given is toxicity, organism-based. The note with it: in vivo, ip.
The test system of data set [17] is Mus musculus. Description: Anticonvulsant activity in i.p. dosed Mus musculus (mouse) assessed as protection against maximal-electric shock-induced seizures measured at 4 hr. As to conditions: ip, read-out: MED. The class given is functional.
Data set [18] relates to Mus musculus. The data set can be described thus: Neurotoxicity in Mus musculus (mouse) assessed as motor impairment at 30 to 300 mg/kg, ip measured at 4 hr by rotarod test. The class given is toxicity, organism-based. More on the design: dose 30-300 mg/kg, route intraperitoneal. As to conditions: in vivo.
Data set [19] deals with Mus musculus. Description: Anticonvulsant activity in Mus musculus (mouse) assessed as protection against maximal-electric shock-induced seizures at 30 to 300 mg/kg, ip measured at 0.5 hr. The class given is functional, organism-based.

Structures are written as SMILES. Activity calls are given as the source filed them. The calls are words filed in the database; no cut-off is given here.

As to `Cc1ccc(NC(=O)NN)cc1`, the MTC in the data set with Mus musculus [1] amounted to 300 mg/kg. The Activity with Mus musculus [2] is 25%; in the data set on Mus musculus [3] (route intraperitoneal), 25%; in the data set on Mus musculus [4], “Non-toxic”; in the data set with Mus musculus [6], 50%; with Mus musculus [7], 50%; in the data set on Mus musculus [8] it was 100%. Also, the Activity result is “Non-toxic” with Mus musculus [10], 50% with Mus musculus [12], “Non-toxic” with Mus musculus [13] and “Non-toxic” with Mus musculus [15]. Moreover, in the data set with Mus musculus [5], the minimal effective dose was 300 mg/kg. The outcome with Mus musculus [9], in the data set with Mus musculus [11] and in the data set with Mus musculus [14] was inactive.

As for `NC(=O)N1c2ccccc2C=Cc2ccccc21` [CARBAMAZEPINE], the MTC worked out at 300 mg/kg in the data set with Mus musculus [1] and 100 mg/kg in the data set with Mus musculus [16]. The figures for the minimal effective dose in the data set with Mus musculus [5] and in the data set on Mus musculus [17] were 30 mg/kg and 100 mg/kg, respectively. In addition, the outcome in the data set on Mus musculus [11] was inactive.

`Cc1ccc(NC(=O)NN=C2CCCCC2)cc1`: the Activity entry is listed as “Non-toxic” in the data set with Mus musculus [2]; “Non-toxic” in the data set on Mus musculus [4]; “Non-toxic” with Mus musculus [18]; “Non-toxic” with Mus musculus [6]; 100% with Mus musculus [7]; 25% in the data set on Mus musculus [8]. In addition, the Activity entry in the data set with Mus musculus [10] is reported as “Non-toxic”; in the data set on Mus musculus [12], 50%; in the data set with Mus musculus [13] it was “Non-toxic”; in the data set on Mus musculus [14] (route intraperitoneal), 25%; in the data set with Mus musculus [15] it was “Non-toxic”. The outcome in the data set with Mus musculus [3], with Mus musculus [19] and in the data set on Mus musculus [11] was inactive. Further, in the data set on Mus musculus [17], the minimal effective dose is 300 mg/kg.

As for `COc1ccc(/C(C)=N/NC(=O)Nc2ccccc2Cl)cc1`, the MTC in the data set on Mus musculus [1] turned out to be 300 mg/kg. Besides, the minimal effective dose in the data set on Mus musculus [5] and in the data set on Mus musculus [17] was 300 mg/kg in each case. Also, the Activity result in the data set with Mus musculus [10] is recorded as “Non-toxic”. Also, the outcome in the data set with Mus musculus [11] was inactive.

`O=C1NC(=O)C(c2ccccc2)(c2ccccc2)N1` [PHENYTOIN]: the MTC in the data set on Mus musculus [1] and with Mus musculus [16] was 100 mg/kg throughout. The minimal effective dose in the data set on Mus musculus [5] and with Mus musculus [17] was 30 mg/kg each time. The outcome with Mus musculus [11] was inactive.
